The values that follow come from patent US20040161419A1, “Placental stem cells and uses thereof” (priority 2002, published 2004).

The test system of data set [1] is placental stem cells. Kind of data set: Differentiation into cardiomyocytes (RT-PCR). Format: cell-based, human. The note with it: 1 mM, day 14 versus day 0, RT-PCR. As for the experimental part: Placental stem cells (PSCs) were cultured in the presence of L-Ascorbic acid 2-phosphate (1 mM) for 14 days. Total RNA was extracted on day 0 and day 14 and used for RT-PCR analysis. Cardiomyocyte specific genes primers were designed specifically for cardiac transcription factor GATA-4, atrial myosin light chain type 2 (MLC-2A), ventricular myosin light chain type 2 (MLC-2V), human atrial natriuretic peptide (hANP), and cardiac troponin T (cTnT). The PCR reaction conditions were 45 cycles/57° C. annealing temperature. The PCR products were size fractioned by 2.5% agarose gel electrophoresis.

The subject of data set [2] is placental stem cells. As to the kind of experiment: Differentiation into neural cells. Format: cell-based, human. The procedure:
[…] Immunohistochemical analysis of the expression of the different genes was conducted with antibodies specific to the human proteins.

A further data set deals with CYP1A1/2. Kind of data set: EROD assay (ethoxyresorufin-o-deethylase). Format: cell-based. The note with it: prior exposure 50 uM; human hepatocytes and hepatocytes derived from PSCs. The procedure:
Human hepatocytes were cultured using the conditions of Strom et al. Methods in Enzymology 272:388-401 (1996).
An EROD assay which measures the conversion of ethoxy-resorufin to hydroxyresorufin was used to detect expression of CYP1A1 or CYP1A2 in human hepatocytes and hepatocytes derived from placental stem cells (Kelley et al. J. Biomolecular Screening 5:249-253 (2000). CYP1A activity in these cells was induced by exposing the hepatocytes to beta-naphthoflavone (50 uM).

The test system of data set [3] is placental stem cells. As to the kind of experiment: Differentiation into pancreatic cells (RT-PCR). Format: cell-based, human. The note with it: on Matrigel, 14 days. The procedure: Placental stem cells were maintained in standard growth media for 7 days and then trypsinized and seeded on cultures previously coated with matrigel (MG), a commercially available form of basement membrane proteins. Cultures were coated with 20% (v/v; matrigel to media) or 100% matrigel with essentially identical results. […] After 10-14 days the cells were lysed and RNA was isolated, and reverse transcriptase-PCR analysis was conducted with PCR primers specific for Pax 6, PDX-1 Nkx2.2, insulin, glucagon and an internal control, beta-actin.

Data set [4] deals with placental stem cells.
Method: The cells were cultured for either 7-10 days or until the cultures grew to confluence. The cells were trypsinized and reseeded in 6 well plates. The cells were subjected to different culture conditions, having varying growth factors supplementing the DMEM or MEM based medium. […] Placental stem cells were cultured for an additional 14 days. At the end of 14 days, the cells were evaluated for the expression of human albumin, CYP3A4, A1AT, or C/EBP-alpha.

In the case of `O=C1O[C@H]([C@@H](O)CO)C(O)=C1OP(=O)(O)O` [L-Ascorbic acid 2-phosphate], the “expression of MLC-2A and MLC-2V genes” value in the data set with placental stem cells [1] is on record as “significantly up-regulated”.

Consider `CC1=C(/C=C/C(C)=C/C=C/C(C)=C/C(=O)O)C(C)(C)CCC1` [all trans retinoic acid, all-trans retinoic acid], for which the “expression of GFAP, beta-tubulin III and CNP” value in the data set on placental stem cells [2] (immunofluorescence, FIG. 9A) is given as “express”. The “expression of nestin and glutamic acid decarboxylase (GAD)” value in the data set on placental stem cells [2] (over 7 days of culture, FIG. 9B) is “increase”.

For `O=c1cc(-c2ccccc2)oc2ccc3ccccc3c12` [beta-naphthoflavone (BNF), beta-naphthoflavone], the “effect on EROD activity” value in the data set on CYP1A1/2 is reported as “induced”.

Regarding `NC(=O)c1cccnc1` [nicotinamide], in the data set with placental stem cells [3], the “expression of pancreatic markers (insulin, glucagon, PDX-1, Pax6, Nkx2.2)” value is “express insulin and glucagon”.

As for “FGF 2: fibroblast growth factor 2, media supplement”, the “liver specific gene expression (albumin, CYP3A4, A1AT, C/EBP-alpha)” value in the data set on placental stem cells [4] is recorded as “did not enhance liver specific gene expression”.

For the molecule “hepatocyte growth factor (HGF): hepatocyte growth factor, media supplement”, the “liver specific gene expression (albumin, CYP3A4, A1AT, C/EBP-alpha)” value in the data set on placental stem cells [4] was “did not enhance liver specific gene expression”.
